Like-named read-outs stand apart in the source and are kept apart here.
Molecular target: PI3K (p110α/p85α) (Homo sapiens (Human), UniProt P42336)
Test: PI3K Activity Assay (ADP Hunter Plus)
Assay type: biochemical
Details: for inhibition at 10 µM: 10 μM compound concentration, read-out: Inhibition (%) of PI3Kα activity, Inh (%) at 10 μM
Experimental: The kinase activity was measured by using the commercial ADP Hunter™ Plus assay available from DiscoveRx (#33-016), which is a homogeneous assay to measure the accumulation of ADP, a universal product of kinase activity. The enzyme, PI3K (p110α/p85α was purchased from Carna Biosciences (#07CBS-0402A). The assay was done following the manufacturer recommendations with slight modifications: Mainly the kinase buffer was replace by 50 mM HEPES, pH 7.5, 3 mM MgCl2, 100 mM NaCl, 1 mM EGTA, 0.04% CHAPS, 2 mM TCEP and 0.01 mg/ml BGG. The PI3K was assayed in a titration experiment to determine the optimal protein concentration for the inhibition assay. To calculate the IC50 of the ETP-compounds, serial 1:5 dilutions of the compounds were added to the enzyme at a fixed concentration (2.5 μg/mL. The enzyme was preincubated with the inhibitor and 30 μM PIP2 substrate (P9763, Sigma) for 5 min and then ATP was added to a final 50 μM concentration. Reaction was carried out for 1 hour at 25° C. Reagent A and B were sequentially added to the wells and plates were incubated for 30 min at 37° C. Fluorescence counts were read in a Victor instrument (Perkin Elmer) with the recommended settings (544 and 580 nm as excitation and emission wavelengths, respectively). Values were normalized against the control activity included for each enzyme (i.e., 100% PI3 kinase activity, without compound). These values were plot against the inhibitor concentration and were fit to a sigmoid dose-response curve by using the Graphad software.

[1] = read-out: Biological activity in PI3Kα, semi-quantitative

Sequence of PI3K (p110α/p85α) (P42336 whole entry): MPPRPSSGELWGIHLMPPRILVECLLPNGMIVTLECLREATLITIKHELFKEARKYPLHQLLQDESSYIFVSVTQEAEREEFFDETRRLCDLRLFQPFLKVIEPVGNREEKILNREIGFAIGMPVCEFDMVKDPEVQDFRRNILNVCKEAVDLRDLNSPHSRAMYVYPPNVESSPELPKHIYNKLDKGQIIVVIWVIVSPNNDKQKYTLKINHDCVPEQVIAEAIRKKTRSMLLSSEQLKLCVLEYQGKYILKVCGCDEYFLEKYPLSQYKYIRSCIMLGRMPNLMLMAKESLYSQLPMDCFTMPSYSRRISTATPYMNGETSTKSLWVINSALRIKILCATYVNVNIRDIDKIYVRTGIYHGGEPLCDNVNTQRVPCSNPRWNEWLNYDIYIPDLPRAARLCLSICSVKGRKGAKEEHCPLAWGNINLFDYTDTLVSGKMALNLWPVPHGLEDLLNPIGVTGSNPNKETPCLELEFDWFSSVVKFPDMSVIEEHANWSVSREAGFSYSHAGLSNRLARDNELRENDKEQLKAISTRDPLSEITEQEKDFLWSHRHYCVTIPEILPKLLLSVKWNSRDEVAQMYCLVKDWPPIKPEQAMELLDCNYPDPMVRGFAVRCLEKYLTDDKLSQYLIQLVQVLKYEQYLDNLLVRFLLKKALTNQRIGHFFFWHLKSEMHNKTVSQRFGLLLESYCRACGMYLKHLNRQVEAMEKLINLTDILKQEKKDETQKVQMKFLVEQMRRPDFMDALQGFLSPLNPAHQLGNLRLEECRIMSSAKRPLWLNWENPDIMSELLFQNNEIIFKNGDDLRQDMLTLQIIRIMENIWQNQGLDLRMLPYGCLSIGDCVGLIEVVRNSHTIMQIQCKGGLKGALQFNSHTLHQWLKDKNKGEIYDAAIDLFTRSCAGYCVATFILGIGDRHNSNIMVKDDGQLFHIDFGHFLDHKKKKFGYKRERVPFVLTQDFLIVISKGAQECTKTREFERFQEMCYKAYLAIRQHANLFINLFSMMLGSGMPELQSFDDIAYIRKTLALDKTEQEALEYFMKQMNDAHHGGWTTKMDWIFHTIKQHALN
Sequence of PI3K (p110α/p85α) (P27986 whole entry partner): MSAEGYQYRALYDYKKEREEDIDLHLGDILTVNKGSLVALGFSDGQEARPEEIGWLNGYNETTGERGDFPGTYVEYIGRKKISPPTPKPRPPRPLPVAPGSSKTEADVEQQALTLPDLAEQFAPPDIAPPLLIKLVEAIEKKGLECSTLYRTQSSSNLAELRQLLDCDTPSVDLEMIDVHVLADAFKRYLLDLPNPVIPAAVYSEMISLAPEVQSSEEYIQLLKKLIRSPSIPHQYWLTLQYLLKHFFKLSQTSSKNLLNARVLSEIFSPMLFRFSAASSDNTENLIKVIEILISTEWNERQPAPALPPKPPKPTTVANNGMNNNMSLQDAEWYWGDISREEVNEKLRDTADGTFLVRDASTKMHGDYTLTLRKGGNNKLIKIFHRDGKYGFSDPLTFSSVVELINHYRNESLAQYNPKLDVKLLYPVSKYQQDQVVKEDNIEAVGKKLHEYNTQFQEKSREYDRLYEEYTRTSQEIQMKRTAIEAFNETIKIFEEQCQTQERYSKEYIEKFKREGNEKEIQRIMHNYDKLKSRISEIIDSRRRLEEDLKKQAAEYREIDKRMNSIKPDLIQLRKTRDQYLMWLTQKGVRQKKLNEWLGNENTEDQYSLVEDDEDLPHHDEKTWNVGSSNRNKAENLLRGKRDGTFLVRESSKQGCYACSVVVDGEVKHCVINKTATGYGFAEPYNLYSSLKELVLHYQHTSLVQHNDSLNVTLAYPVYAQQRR

inhibition at 10 µM [%]	IC50 [1] [µM]	IC50 (read-out: IC50 [μM] PI3Kα) [µM]	SMILES
68	0.1 to 1		COc1ccc(-c2nn3c(-c4ccc(S(C)(=O)=O)c(F)c4)c(C)nc3s2)cc1OC [Example 1, 2-(3,4-Dimethoxy-phenyl)-5-(3-fluoro-4-methanesulfonyl-phenyl) -6-methyl-imidazo[2,1-b][1,3,4]thiadiazole]
100	0.1 to 1		COc1ccc(-c2nn3c(-c4ccc(C#N)nc4)c(C)nc3s2)cc1OC [Example 2, 5-[2-(3,4-Dimethoxy-phenyl)-6-methyl-imidazo[2,1-b][1,3,4]thiadiazol-5-yl]-pyridine-2-carbonitrile]
97	< 0.1		COc1ccc(-c2nn3c(-c4cnc(N)c(C(F)(F)F)c4)c(C)nc3s2)cc1OC [Example 3, 5-[2-(3,4-Dimethoxy-phenyl)-6-methyl-imidazo[2,1-b][1,3,4]thiadiazol-5-yl]-3-trifluoromethyl-pyridin-2-ylamine]
81	1 to 50		COc1ccc(-c2nn3c(-c4cccnc4)c(C)nc3s2)cc1OC [Example 4, 2-(3,4-Dimethoxy-phenyl)-6-methyl-5-pyridin-3-yl-imidazo[2,1-b][1,3,4]thiadiazole]
70	1 to 50	2.88	COc1ccc(-c2c(C)nc3sc(-c4ccc(OC)c(OC)c4)nn23)cn1 [Example 5, 2-(3,4-Dimethoxy-phenyl)-5-(6-methoxy-pyridin-3-yl)-6-methyl-imidazo[2,1-b][1,3,4]thiadiazole]
85	0.1 to 1		COc1ccc(-c2nn3c(-c4ccc(OC)c(OC)c4)c(C)nc3s2)cc1OC [Example 6, 2,5-Bis-(3,4-dimethoxy-phenyl)-6-methyl-imidazo[2,1-b][1,3,4]thiadiazole]
100	0.1 to 1		COc1ccc(-c2nn3c(-c4cnc(N)nc4)c(C)nc3s2)cc1OC [Example 7, 5-[2-(3,4-Dimethoxy-phenyl)-6-methyl-imidazo[2,1-b][1,3,4]thiadiazol-5-yl]-pyrimidin-2-ylamine]
	1 to 50		COc1ccc(-c2nn3c(-c4ccc(O)nc4)c(C)nc3s2)cc1OC [Example 8, 5-[2-(3,4-Dimethoxy-phenyl)-6-methyl-imidazo[2,1-b][1,3,4]thiadiazol-5-yl]-pyridin-2-ol]
77	1 to 50		COc1cc(-c2nn3c(-c4cnc(N)c(C(F)(F)F)c4)c(C)nc3s2)ccc1OCCNC(=O)OC(C)(C)C [Example 9, tert-Butyl 2-(4-(5-(6-amino-5-(trifluoromethyl)pyridin-3-yl)-6-methylimidazo-[2,1-b][1,3,4]thiadiazol-2-yl)-2-methoxyphenoxy)ethylcarbamate]
	1 to 50		COc1cc(-c2nn3c(-c4cnc(N)c(C(F)(F)F)c4)c(C)nc3s2)ccc1OCC(=O)N(C)C [Example 10, 2-(4-(5-(6-amino-5-(trifluoromethyl)pyridin-3-yl)-6-methylimidazo[2,1-b][1,3,4]thiadiazol-2-yl)-2-methoxyphenoxy)-N,N-dimethylacetamide]
83	1 to 50		COc1cc(-c2nn3c(-c4cnc(N)c(C(F)(F)F)c4)c(C)nc3s2)ccc1OCCN1CCOCC1 [Example 11, 5-(2-(4-(2-morpholinoethoxy)-3-methoxyphenyl)-6-methylimidazo[2,1-b][1,3,4]thiadiazol-5-yl)-3-(trifluoromethyl)pyridin-2-amine]
	< 0.1		COc1cc(-c2nn3c(-c4cnc(N)c(C(F)(F)F)c4)cnc3s2)ccc1OC1CCNCC1 [Example 12, 5-{2-[3-Methoxy-4-(piperidin-4-yloxy)-phenyl]-imidazo[2,1-b][1,3,4]thiadiazol-5-yl}-3-trifluoromethyl-pyridin-2-ylamine]
	1 to 50		COc1ccc(-c2cnc3sc(-c4ccc(OC5CCNCC5)c(OC)c4)nn23)cn1 [Example 13, 2-[3-Methoxy-4-(piperidin-4-yloxy)-phenyl]-5-(6-methoxy-pyridin-3-yl)-imidazo[2,1-b][1,3,4]thiadiazole]
	1 to 50		COc1cc(-c2nn3c(-c4cnc(N)nc4)cnc3s2)ccc1OC1CCN(C(=O)OC(C)(C)C)CC1 [Example 14, 4-{4-[5-(2-Amino-pyrimidin-5-yl)-imidazo[2,1-b][1,3,4]thiadiazol-2-yl]-2-methoxy-phenoxy}-piperidine-1-carboxylic acid tert-butyl ester]
	0.1 to 1	0.115	COc1cc(-c2nn3c(-c4cnc(N)nc4)cnc3s2)ccc1OC1CCNCC1 [Example 15, 5-{2-[3-Methoxy-4-(piperidin-4-yloxy)-phenyl]-imidazo[2,1-b][1,3,4]thiadiazol-5-yl}-pyrimidin-2-ylamine]
97	< 0.1		COc1ccc(-c2nn3c(-c4ccc(OC)c(OC)c4)cnc3s2)cc1OC [Example 16, 2,5-Bis-(3,4-dimethoxy-phenyl)-imidazo[2,1-b][1,3,4]thiadiazole]
95	< 0.1	0.063	COc1ccc(-c2nn3c(-c4ccc(C#N)nc4)cnc3s2)cc1OC [Example 17, 5-[2-(3,4-Dimethoxy-phenyl)-imidazo[2,1-b][1,3,4]thiadiazol-5-yl]-pyridine-2-carbonitrile]
	< 0.1	0.033	COc1ccc(-c2nn3c(-c4cnc(N)c(C#N)c4)cnc3s2)cc1OC [Example 18, 2-Amino-5-[2-(3,4-dimethoxy-phenyl)-imidazo[2,1-b][1,3,4]thiadiazol-5-yl]-nicotinonitrile]
	1 to 50		COc1ccc(-c2nn3c(-c4cnc(N5CCN(C(=O)OC(C)(C)C)CC5)nc4)cnc3s2)cc1OC [Example 19, 4-{5-[2-(3,4-Dimethoxy-phenyl)-imidazo[2,1-b][1,3,4]thiadiazol-5-yl]-pyrimidin-2-yl}-piperazine-1-carboxylic acid tert-butyl ester]
	0.1 to 1		COc1ccc(-c2nn3c(-c4cnc(N5CCNCC5)nc4)cnc3s2)cc1OC [Example 20, 2-(3,4-Dimethoxy-phenyl)-5-(2-piperazin-1-yl-pyrimidin-5-yl)-imidazo[2,1-b][1,3,4]thiadiazole]
	0.1 to 1		COc1ccc(-c2nn3c(-c4cnc(N5CCN(C)CC5)nc4)cnc3s2)cc1OC [Example 21, 2-(3,4-Dimethoxy-phenyl)-5-[2-(4-methyl-piperazin-1-yl)-pyrimidin-5-yl]-imidazo[2,1-b][1,3,4]thiadiazole]
	0.1 to 1		COc1ccc(-c2nn3c(-c4cnc(N5CCNCC5)c(C(F)(F)F)c4)cnc3s2)cc1OC [Example 22, 2-(3,4-Dimethoxy-phenyl)-5-(6-piperazin-1-yl-5-trifluoromethyl-pyridin-3-yl)-imidazo[2,1-b][1,3,4]thiadiazole]
	0.1 to 1	0.447	COc1ccc(-c2nn3c(-c4cnc(N5CCN(C)CC5)c(C(F)(F)F)c4)cnc3s2)cc1OC [Example 23, 2-(3,4-Dimethoxy-phenyl)-5-[6-(4-methyl-piperazin-1-yl)-5-trifluoromethyl-pyridin-3-yl]-imidazo[2,1-b][1,3,4]thiadiazole]
	0.1 to 1		COc1ccc(-c2nn3c(-c4cnc(SC)nc4)cnc3s2)cc1OC [Example 24, 2-(3,4-Dimethoxy-phenyl)-5-(2-methylsulfanyl-pyrimidin-5-yl)-imidazo[2,1-b][1,3,4]thiadiazole]

From patent US8815918B2, “Imidazo [2, 1-B] [1, 3, 4] thiadiazole derivatives” (Centro Nacional de Investigaciones Oncologicas (CNIO), priority 2009, dated 2014)
